The values that follow come from ChEMBL document CHEMBL3865792, “Antioxidant and antitumor activity of trolox, trolox succinate, and α-tocopheryl succinate conjugates with nitroxides” (Eur J Med Chem, 2016).

Tested on in the first series: not listed separately
The series can be described thus: Ratio of IC50 for human U937 cells to concentration causing antioxidant activity in Salmonella typhimurium TA102 harboring […] mutant.
Conditions: not given
The series is classed as functional, U-937.
`CC1(C)CC(NC(=O)CCC(=O)O)C(C)(C)N1[O]` (centres undefined): the Ratio is 100 - 1000.

Tested on in the next series: not listed separately
The series can be described thus: Cytotoxicity against hamster AG17-1 cells assessed as reduction in cell viability at 300 uM after 72 hrs by MTT assay. Particulars: Chinese hamster, read-out: INH. The series is classed as toxicity, cell-based, Cricetulus griseus.
As to `CC1(C)CC(NC(=O)CCC(=O)O)C(C)(C)N1[O]` (centres undefined), the cytotoxicity at 72 h, 300 µM is 19%.

Tested on in the next series: not listed separately
The series can be described thus: Cytotoxicity against human HepG2 cells assessed as reduction in cell viability after 72 hrs by MTT assay. The series is classed as functional, cell-based. The conditions noted are these: HepG2, 72 h.
Turning to `CC1(C)CC(NC(=O)CCC(=O)O)C(C)(C)N1[O]` (centres undefined), the IC50 is > 300 µM.

Tested on in the next series: not listed separately
The series can be described thus: Ratio of IC50 for human CEM13 cells to concentration causing antioxidant activity in Salmonella typhimurium TA102 harboring […] mutant. It is filed as functional.
Conditions: not given
For `CC1(C)CC(NC(=O)CCC(=O)O)C(C)(C)N1[O]` (centres undefined), the Ratio was 100 - 1000.

Tested on in a further series: not listed separately
The series can be described thus: Cytotoxicity against human MCF7 cells assessed as reduction in cell viability after 72 hrs by MTT assay. It is filed as functional, cell-based. The conditions noted are these: MCF7, 72 h.
In the case of `CC1(C)CC(NC(=O)CCC(=O)O)C(C)(C)N1[O]` (centres undefined), the IC50 was > 300 µM.

Tested on in the next series: not listed separately
The series can be described thus: Cytotoxicity against human MCF7 cells assessed as reduction in cell viability at 300 uM after 72 hrs by MTT assay. The series is classed as functional. Particulars: MCF7, 72 h.
As to `CC1(C)CC(NC(=O)CCC(=O)O)C(C)(C)N1[O]` (centres undefined), the inhibition at 300 µM is 17%.

Tested on in another series: not listed separately
The series can be described thus: Cytotoxicity against human CEM13 cells assessed as reduction in cell viability after 72 hrs by MTT assay. It is filed as functional, cell-based. Particulars: CEM13, 72 h.
With `CC1(C)CC(NC(=O)CCC(=O)O)C(C)(C)N1[O]` (centres undefined), the IC50 is > 400 µM.

Tested on in the next series: not listed separately
The series can be described thus: Ratio of IC50 for human MCF7 cells to concentration causing antioxidant activity in Salmonella typhimurium TA102 harboring […] mutant. It is filed as functional.
Conditions: not given
Regarding `CC1(C)CC(NC(=O)CCC(=O)O)C(C)(C)N1[O]` (centres undefined), the Ratio was 100 - 1000.

Tested on in the next series: not listed separately
The series can be described thus: Cytotoxicity against human MT4 cells assessed as reduction in cell viability after 72 hrs by MTT assay. The conditions noted are these: MT4, 72 h. It is filed as functional, cell-based.
Consider `CC1(C)CC(NC(=O)CCC(=O)O)C(C)(C)N1[O]` (centres undefined), for which the IC50 was > 400 µM.

In a further series the test system is Salmonella enterica subsp. enterica serovar Typhimurium. The series can be described thus: Antioxidant activity in Salmonella typhimurium TA102 harboring […] mutant assessed as inhibition of t-BuO2H-dependant mutant formation at 30 uM preincubated with compound followed by t-BuO2H addition after 48 hrs by Ames test.
Conditions: not given
It is filed as functional.
For the molecule `CC1(C)CC(NC(=O)CCC(=O)O)C(C)(C)N1[O]` (centres undefined), the inhibition is 52%.

Tested on in the next series: not listed separately
The series can be described thus: Cytotoxicity against human RPMI8226 cells assessed as reduction in cell viability after 72 hrs by MTT assay. It is filed as functional, cell-based. The conditions noted are these: RPMI-8226, 72 h.
In the case of `CC1(C)CC(NC(=O)CCC(=O)O)C(C)(C)N1[O]` (centres undefined), the IC50 was > 300 µM.

Another series has as its system Salmonella enterica subsp. enterica serovar Typhimurium. The series can be described thus: Antioxidant activity in Salmonella typhimurium TA102 harboring […] mutant assessed as inhibition of t-BuO2H-dependant mutant formation at 3 uM preincubated with compound followed by t-BuO2H addition after 48 hrs by Ames test. The series is classed as functional.
Conditions: not given
For `CC1(C)CC(NC(=O)CCC(=O)O)C(C)(C)N1[O]` (centres undefined), the inhibition is 48%.

Tested on in another series: not listed separately
The series can be described thus: Cytotoxicity against human U937 cells assessed as reduction in cell viability after 72 hrs by MTT assay. It is filed as functional, cell-based. Particulars: U-937, 72 h.
Take `CC1(C)CC(NC(=O)CCC(=O)O)C(C)(C)N1[O]` (centres undefined): the IC50 is 241 µM.

Tested on in a further series: not listed separately
The series can be described thus: Genotoxicity in Escherichia coli PQ37 expressing lacZ gene assessed as ratio of inducible beta-galactosidase activity to alkaline phosphatase activity at 3 mM after 2 hrs by SOS-chromotest relative to control. The series is classed as toxicity. The conditions noted are these: Escherichia coli PQ37 cells expressing lacZ gene, read-out: FC.
As for `CC1(C)CC(NC(=O)CCC(=O)O)C(C)(C)N1[O]` (centres undefined), the fold induction at 2 h, 3000 µM is 1.2.

The subject of the next series is Salmonella typhimurium. The series can be described thus: Genotoxicity in Salmonella typhimurium TA102 harboring […] mutant assessed as frequency of reversion from histidine auxotrophy to prototrophy at 30 mM after 48 hrs by Ames test (reference value: 209 +/- 10 No _unit). The series is classed as toxicity, organism-based. The conditions noted are these: salmonella enterica subsp. enterica serovar typhimurium, 30000 µM.
As for `CC1(C)CC(NC(=O)CCC(=O)O)C(C)(C)N1[O]` (centres undefined), the Activity turned out to be 199.

Tested on in the next series: not listed separately
The series can be described thus: Ratio of IC50 for human HEPG2 cells to concentration causing antioxidant activity in Salmonella typhimurium TA102 harboring […] mutant. It is filed as functional.
Conditions: not given
Regarding `CC1(C)CC(NC(=O)CCC(=O)O)C(C)(C)N1[O]` (centres undefined), the Ratio was 100 - 1000.

Tested on in the next series: not listed separately
The series can be described thus: Ratio of IC50 for human MT4 cells to concentration causing antioxidant activity in Salmonella typhimurium TA102 harboring […] mutant.
Conditions: not given
It is filed as functional.
Regarding `CC1(C)CC(NC(=O)CCC(=O)O)C(C)(C)N1[O]` (centres undefined), the Ratio is on record as 100 - 1000.

Tested on in a further series: not listed separately
The series can be described thus: Ratio of IC50 for human RPMI8226 cells to concentration causing antioxidant activity in Salmonella typhimurium TA102 harboring […] mutant. The series is classed as functional, RPMI-8226.
Conditions: not given
With `CC1(C)CC(NC(=O)CCC(=O)O)C(C)(C)N1[O]` (centres undefined), the Ratio is listed as 100 - 1000.

Tested on in another series: not listed separately
The series can be described thus: Cytotoxicity against hamster AG17-1 cells assessed as reduction in cell viability after 72 hrs by MTT assay. It is filed as toxicity, cell-based, Cricetulus griseus. The conditions noted are these: Chinese hamster.
For `CC1(C)CC(NC(=O)CCC(=O)O)C(C)(C)N1[O]` (centres undefined), the IC50 at 72 h was > 300 µM.

Tested on in a further series: not listed separately
The series can be described thus: Cytotoxicity against human RPMI8226 cells assessed as reduction in cell viability at 300 uM after 72 hrs by MTT assay. The conditions noted are these: RPMI-8226, 72 h. The series is classed as functional.
With `CC1(C)CC(NC(=O)CCC(=O)O)C(C)(C)N1[O]` (centres undefined), the inhibition at 300 µM stood at 44%.

Tested on in another series: not listed separately
The series can be described thus: Cytotoxicity against human HepG2 cells assessed as reduction in cell viability at 300 uM after 72 hrs by MTT assay. The conditions noted are these: HepG2, 72 h. The series is classed as functional.
As for `CC1(C)CC(NC(=O)CCC(=O)O)C(C)(C)N1[O]` (centres undefined), the inhibition at 300 µM came out at 0%.

Tested on in another series: not listed separately
The series can be described thus: Cytotoxicity against mouse LMTK cells assessed as reduction in cell viability at 300 uM after 72 hrs by MTT assay. The conditions noted are these: read-out: INH. The series is classed as toxicity.
In the case of `CC1(C)CC(NC(=O)CCC(=O)O)C(C)(C)N1[O]` (centres undefined), the cytotoxicity at 72 h, 300 µM worked out at 0%.

Tested on in a further series: not listed separately
The series can be described thus: Cytotoxicity against mouse LMTK cells assessed as reduction in cell viability after 72 hrs by MTT assay. The series is classed as toxicity.
Conditions: not given
Regarding `CC1(C)CC(NC(=O)CCC(=O)O)C(C)(C)N1[O]` (centres undefined), the IC50 at 72 h was > 300 µM.

The next series deals with Salmonella enterica subsp. enterica serovar Typhimurium. The series can be described thus: Antioxidant activity in Salmonella typhimurium TA102 harboring […] mutant assessed as inhibition of t-BuO2H-dependant mutant formation at 0.3 uM preincubated with compound followed by t-BuO2H addition after 48 hrs by Ames test. The series is classed as functional.
Conditions: not given
For the molecule `CC1(C)CC(NC(=O)CCC(=O)O)C(C)(C)N1[O]` (centres undefined), the inhibition stood at 38%.
